Measurements from US8114859B2, “2-methylene-(20S,25S)-19,27-dinor-(22E)-vitamin D analogs” (Wisconsin Alumni Research Foundation, priority 2006, dated 2012).
Where two headings read alike, the source gives them in different places.

How the values were obtained:
[1] = test system: HL-60 cells; assay: HL-60 differentiation (nitro blue tetrazolium reduction assay); format: cell-based, human; settings: FIG. 2; for EC50: read-out: EC50, HL-60 cell differentiation
Experimental: The study drugs were dissolved in ethanol and the concentrations determined using UV spectrophotometry. Serial dilutions were prepared so that a range of drug concentrations could be tested without changing the final concentration of ethanol (≦0.2%) present in the cell cultures.
Human promyelocytic leukemia (HL60) cells were grown in RPMI-1640 medium containing 10% fetal bovine serum. The cells were incubated at 37° C. in the presence of 5% CO2.
HL60 cells were plated at 1.2×10^5 cells/ml. Eighteen hours after plating, cells in duplicate were treated with drug. Four days later, the cells were harvested and a nitro blue tetrazolium reduction assay was performed (Collins et al., 1979; J. Exp. Med. 149:969-974). The percentage of differentiated cells was determined by counting a total of 200 cells and recording the number that contained intracellular black-blue formazan deposits. Verification of differentiation to monocytic cells was determined by measuring phagocytic activity (data not shown).

[2] = test system: 24-hydroxylase (24Ohase) gene promoter; assay: In vitro transcription assay, luciferase reporter in ROS 17/2.8 (bone) cells; format: cell-based; settings: FIG. 3; for EC50: ROS 17/2.8 cells, read-out: EC50, transcriptional activity in bone cells
Experimental: Transcription activity was measured in ROS 17/2.8 (bone) cells that were stably transfected with a 24-hydroxylase (24Ohase) gene promoter upstream of a luciferase reporter gene (Arbour et al., 1998). Cells were given a range of doses. Sixteen hours after dosing the cells were harvested and luciferase activities were measured using a luminometer.
RLU=Relative Luciferase Units.

[3] = Bone calcium mobilization (serum calcium) in vitamin D-deficient rats; format: in vivo, rat; settings: FIG. 4; for bone calcium mobilization: ip
Experimental: (§1) Male, weanling Sprague-Dawley rats were placed on Diet 11 (0.47% Ca) diet+AEK for one week followed by Diet 11 (0.02% Ca)+AEK for 3 weeks. The rats were then switched to a diet containing 0.47% Ca for one week followed by two weeks on a diet containing 0.02% Ca. Dose administration began during the last week on 0.02% calcium diet. Four consecutive ip doses were given approximately 24 hours apart. Twenty-four hours after the last dose, blood was collected from the severed neck and the concentration of serum calcium determined as a measure of bone calcium mobilization. The first 10 cm of the intestine was also collected for intestinal calcium transport analysis using the everted gut sac method.

[4] = Intestinal calcium transport, everted gut sac method, in vitamin D-deficient rats; format: in vivo, rat; settings: FIG. 5; for intestinal calcium transport: everted gut sac
Experimental: as §1

[5] = biological target: T1, full-length recombinant rat vitamin D receptor (Rattus norvegicus, UniProt P13053); assay: Vitamin D receptor binding, competition with [3H]-1,25(OH)2D3; settings: FIG. 1
T1 construct: Full-length recombinant rat receptor was expressed in E. coli BL21 (DE3) Codon Plus RIL cells; His tag (C); made in house; host or cells: E. coli BL21 (DE3) Codon Plus RIL
T1 sequence (P13053 1-423): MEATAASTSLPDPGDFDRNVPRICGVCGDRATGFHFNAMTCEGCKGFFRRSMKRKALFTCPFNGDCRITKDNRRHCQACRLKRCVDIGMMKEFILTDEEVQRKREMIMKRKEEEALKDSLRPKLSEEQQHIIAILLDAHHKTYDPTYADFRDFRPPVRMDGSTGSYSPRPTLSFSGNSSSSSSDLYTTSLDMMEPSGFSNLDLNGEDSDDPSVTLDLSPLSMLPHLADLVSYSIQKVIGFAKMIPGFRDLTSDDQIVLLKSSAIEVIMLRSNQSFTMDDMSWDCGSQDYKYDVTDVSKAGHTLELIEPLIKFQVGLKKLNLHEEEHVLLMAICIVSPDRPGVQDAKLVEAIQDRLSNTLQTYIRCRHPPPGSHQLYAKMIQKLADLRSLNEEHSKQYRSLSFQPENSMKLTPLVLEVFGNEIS
Experimental: Full-length recombinant rat receptor was expressed in E. coli BL21 (DE3) Codon Plus RIL cells and purified to homogeneity using two different column chromatography systems. The first system was a nickel affinity resin that utilizes the C-terminal histidine tag on this protein. The protein that was eluted from this resin was further purified using ion exchange chromatography (S-Sepharose Fast Flow). Aliquots of the purified protein were quick frozen in liquid nitrogen and stored at −80° C. until use. For use in binding assays, the protein was diluted in TEDK50 (50 mM Tris, 1.5 mM EDTA, pH7.4, 5 mM DTT, 150 mM KCl) with 0.1% Chaps detergent. The receptor protein and ligand concentration were optimized such that no more than 20% of the added radiolabeled ligand was bound to the receptor.
Radiolabeled and unlabeled ligands were added to 100 mcl of the diluted protein at a final ethanol concentration of ≦10%, mixed and incubated overnight on ice to reach binding equilibrium. The following day, 100 mcl of hydroxylapatite slurry (50%) was added to each tube and mixed at 10-minute intervals for 30 minutes. The hydroxylapaptite was collected by centrifugation and then washed three times with Tris-EDTA buffer (50 mM Tris, 1.5 mM EDTA, pH 7.4) containing 0.5% Titron X-100. […] Total binding was determined from the tubes containing only radiolabeled ligand.

SMILES: C=C1/C(=C\C=C2/CCC[C@]3(C)[C@@H]([C@H](C)CCCC(C)(C)O)CC[C@@H]23)C[C@@H](O)C[C@@H]1O [1,25(OH)2D3, 1α,25-dihydroxyvitamin D3, reference compound]
- EC50 [1]: 2000 pM
- EC50 [2]: 200 pM
- serum calcium levels ([3]; all dosages, rats on low calcium diet (0.02%)): increased serum calcium levels at all dosages
- intestinal calcium transport ([4]; 260 pmol/day): promotes a significant increase

SMILES: C=C1[C@H](O)CC(=C/C=C2\CCC[C@]3(C)[C@@H]([C@@H](C)/C=C/C[C@H](C)O)CC[C@@H]23)C[C@H]1O [SS-22, 2-methylene-(20S,25S)-19,27-dinor-(22E)-1α,25-dihydroxyvitamin D3]
- Ki ([5]; full-length recombinant rat VDR): 300 pM
- binding to the receptor compared to 1,25-(OH)2D3 ([5]; in words): bound equally to the receptor
- EC50 ([1]; Homo sapiens, HL-60): 1000 pM
- potency on HL-60 cell differentiation compared to 1,25(OH)2D3 ([1]; in words): as potent as 1,25(OH)2D3
- EC50 [2]: 100 pM
- transcriptional activity in bone cells compared to 1α,25-dihydroxyvitamin D3 ([2]; in words): about the same transcriptional activity
- bone calcium mobilization ([3]; 260 pmol/day for 4 consecutive days, rats on low calcium diet (0.02%)): did not result in mobilization of bone calcium
- bone calcium mobilization ([3]; 7020 pmol/day, rats on low calcium diet (0.02%)): without any substantial effect
- bone calcium mobilization activity compared to 1,25(OH)2D3 ([3]; in words, overall): very little bone calcium mobilization activity
- intestinal calcium transport ([4]; 260 pmol/day): promotes intestinal calcium transport only slightly
- intestinal calcium transport ([4]; 7020 pmol/day): significant intestinal calcium transport activity was recorded
- intestinal calcium transport activity compared to 1,25(OH)2D3 ([4]; in words, overall): very little activity
